Test results taken from patent US5817651A, “3-arylcarbonyl-1-(C-attached-N-heteryl)-1H-indoles” (Sanofi, priority 1997, dated 1998).
Counter-ions that a name gives are not always drawn. Like-named read-outs stand apart in the source and are kept apart here.

How the values were obtained:
Assay type in all cases: in vivo
[1] = system: acetic acid-induced writhing; assay: acetic acid-induced writhing assay in the rat (RW); conditions: for RW ED50 / ED50: oral administration; for ED50: Rattus norvegicus, po
Description: (§1) Data in the developing adjuvant arthritis (AA) and plasma fibronectin (FN) assays are expressed as percent inhibition, i.e. inhibition of non-injected paw inflammation (NIP) and injected paw (RPV) and lowering of plasma fibronectin, the asterisks * and ** indicating statistical significance at the p<0.01 and p<0.05 levels, respectively. Compounds are considered active at p<0.05 level. Non-statistically significant results are recorded as "------ ". In the acetylcholine-induced abdominal constriction test, the test compounds were administered either as suspensions in gum tragacanth (GT) or as aqueous solutions prepared by addition of just sufficient dilute aqueous methanesulfonic acid (MS) or dilute aqueous lactic acid (LA) to dissolve the compound. The compounds are identified by the example number above where their preparations are described. All data in the anti-bradykinin, rat writhing and Randall-Selitto tests were obtained on oral administration.

[2] = system: acetylcholine-induced abdominal constriction; assay: acetylcholine-induced abdominal constriction test (ACH); conditions: mice; for ED50: Mus musculus
Excerpt: J. Pharmacol. Chemotherap. 32, 295 (1968); a modification of the anti-bradykinin test, which is also a primary analgesic screening procedure, described by Berkowitz et al., J. Pharmacol. Exptl. Therap. 177, 500-508 (1971), Blane et al., J. Pharm. Pharmacol. 19, 367-373 (1967), Botha et al., Eur. J. Pharmacol. 6, 312-321 (1969) and Deffenu et al., J. Pharm. Pharmacol. 18, 135 (1966); and the Randall-Selitto analgesic test described by Randall and Selitto, Arch. Int. Pharmacodyn., 111, 409-419 (1957).
as §1, with “Compounds are considered active at p<0.05 level.” left out

[3] = system: adjuvant induced arthritis; assay: developing adjuvant arthritis (AA) assay; conditions: arthritic rats; printed * = p<0.01, ** = p<0.05
Description: Antirheumatic and anti-inflammatory activities of the compounds of the invention were determined using the developing adjuvant arthritis assay in rats and the plasma fibronectin assay in arthritic rats. The developing adjuvant arthritis assay was used in conjunction with the plasma fibronectin assay as a primary screening method in the evaluation of compounds for potential use as disease modifying anti-rheumatic drugs. The procedure used to induce arthritis in rats is a modification of the methods published by Pearson, J. Chron. Dis. 16, 863-874 (1973) and by Glenn et al., Amer. J. Vet. Res. 1180-1193 (1965). Adjuvant induced arthritis bears many of the traits of rheumatoid arthritis. It is a chronic, progressive, deforming arthritis of the peripheral joints, with a primary mononuclear cell response consisting of bone and joint space invasion by pannus. In order to detect disease modifying anti-rheumatic drug activity, drug treatment is started before the disease has become irrevocably established. Since such drugs are not designed to be administered prophylactically, drug treatment of adjuvant arthritis is initiated at a time when the disease is developing but is not yet irreversible. Animals develop significant systemic arthritic disease which can be measured by swelling of the non-injected rear paw (NIP) 15 to 20 days following an initial injection on day 1 of complete Freund's adjuvant into the right hindfoot paw.
as §1

[4] = Table 9, Examples, no route marked in the cell, read-out: ACH ED50
[5] = Table 9, Examples, no route marked in the cell
[6] = iv, Table 9, iv, read-out: ACH ED50 (iv)

Compound | ED50 [2, 4] | ED50 [1] | NIP: percent inhibition of non-injected paw inflammation [3] | RPV: percent inhibition of injected paw [3] | also measured
COc1ccc(C(=O)c2c(C)n(CC3CCCN3C)c3ccccc23)cc1 (single isomer, unassigned) [2E(d), (d)1-(1-methyl-2-pyrrolidinylmethyl)-2-methyl-3-(4-methoxy-benzoyl)-1H-inole hydorochloride] | 47 mg/kg |  |  |  | RW ED50 [1]: 30 mg/kg; ACH ED50 [2, 5]: 36 mg/kg
COc1ccc(C(=O)c2c(C)n(CC3CNCCN3)c3ccccc23)cc1 (stereo not drawn) [Example 4C] | 22 mg/kg | 20 mg/kg |  |  | 
COc1ccc(C(=O)c2c(C)n(CC3CCCN3)c3ccccc23)cc1.Cl (stereo not drawn) [Example 8A, 2-methyl-3-(4-methoxybenzoyl)-1-[(2-pyrrolidinyl)methyl]-1H-indole hydrochloride] | 41 mg/kg | 25 mg/kg |  |  | 
Cc1c(C(=O)c2ccccc2)c2ccccc2n1CC1CN(C)CCO1 (stereo not drawn) [Example 1C] | 21 mg/kg | 10 mg/kg |  |  | 
COc1ccc(C(=O)c2c(C)n(CC3CSCCN3C)c3ccccc23)cc1 (stereo not drawn) [Example 3A, 1-[(4-methyl-3-thiomorpholinyl)methyl]-2-methyl-3-(4-methoxybenzoyl)-1H-indole] | 33 mg/kg | 13 mg/kg |  |  | 
CCN1CCCC(Cn2c(C)c(C(=O)c3ccc(OC)cc3)c3ccccc32)C1 (stereo not drawn) [Example 2L] | 11 mg/kg | 2 mg/kg |  |  | 
COc1ccc(C(=O)c2c(C)n(CC3=CCCN(C)C3)c3ccccc23)cc1 [Example 2AF] | 11 mg/kg | 15 mg/kg | 93% | 78% | 
COc1ccc(C(=O)c2c(C)n(C3CCCN(C)C3)c3ccccc23)cc1 (stereo not drawn) [2AG(a)] |  | 9 mg/kg |  |  | ACH ED50 ([2]; Table 9, Examples, no route marked in the cell, listed as 2AG(d)): 22 mg/kg
COc1ccc(C(=O)c2c(C)n(CC3CCCN(C)C3)c3ccc(F)cc23)cc1 (stereo not drawn) [Example 2I] | 40 mg/kg | 5 mg/kg | 70% | 51% | 
COc1ccc(C(=O)c2c(C)n(CC3CN(C)CCO3)c3ccccc23)cc1 (stereo not drawn) [Example 1A, 1-[(4-methyl-2-morpholinyl)methyl]-2-methyl-3-(4-methoxybenzoyl)-1H-indolehydrochloride] | 9 mg/kg | 3 mg/kg |  |  | 
Cc1c(C(=O)c2ccc([S+](C)[O-])cc2)c2ccccc2n1CC1CCCN(C)C1.Cl (stereo not drawn) [Example 6A, 1-[(1-methyl-3-piperidinyl)methyl]-2-methyl-3-(4-methylsulfinylbenzoyl)-1H-indole hydrochloride] | 9 mg/kg | 5 mg/kg | 93% | 81% | 
COc1ccc(C(=O)c2c(C)n(CCC3CCCCN3C)c3ccccc23)cc1 (stereo not drawn) [Example 2G] | 26 mg/kg | 3 mg/kg | 93% | 73% | 
CSc1ccc(C(=O)c2c(C)n(CC3CCCN(C)C3)c3ccccc23)cc1 (stereo not drawn) [Example 2O] | 8 mg/kg | 5 mg/kg | 65% | 44% | 
Cc1c(C(=O)c2ccccc2F)c2ccccc2n1CC1CN(C)CCO1 (stereo not drawn) [Example 1F] | 22 mg/kg | 26 mg/kg |  |  | 
Cc1c(C(=O)c2ccccc2)c2ccccc2n1CC1CCCN(C)C1 (stereo not drawn) [Example 1K] | 33 mg/kg | 40 mg/kg | 76% | 50% | 
Cc1c(C(=O)c2ccccc2F)c2ccccc2n1CC1CCCN(C)C1 (stereo not drawn) [Example 1J] | 32 mg/kg | 45 mg/kg |  |  | 
COc1ccc(C(=O)c2c(C)n(CC3(O)CCN(C)CC3)c3ccccc23)cc1 [Example 5, 2-methyl-3-(4-methoxybenzoyl)-1-[(1-methyl-4-hydroxy-4-piperidinyl)methyl]-1H-indole] | 23 mg/kg | 9.1 mg/kg |  |  | 
COc1ccc(C(=O)c2c(C)n(C3CCCCN(C)C3)c3ccccc23)cc1 (stereo not drawn) [Example 2X] | 29 mg/kg |  | 43% |  | RW percent inhibition at dose 30 ([1]; oral, dose level 30): 54%; RW percent inhibition at dose 100 ([1]; oral, dose level 100): 82%
COc1ccc(C(=O)c2c(C)n(CC3CN(C)CCN3C)c3ccccc23)cc1 (stereo not drawn) [Example 2V] | 20 mg/kg | 15 mg/kg |  |  | 
COc1ccc(C(=O)c2c(C)n(CC3CCCNC3)c3ccccc23)cc1 (stereo not drawn) [Example 4B] | 15 mg/kg | 10 mg/kg | 91% | 79% | 
CC(C1CCCN(C)C1)n1cc(C(=O)c2ccccc2F)c2ccccc21 (stereo not drawn) [Example 4F] | 24 mg/kg | 6 mg/kg | 45% | 27% | 
CCc1c(C(=O)c2ccc(OC)cc2)c2ccccc2n1CC1CCCN(C)C1 (stereo not drawn) [Example 2K] | 16 mg/kg | 23 mg/kg | 68% | 54% | ED50 [2, 6]: 11 mg/kg; ED50 ([2]; sc, Table 9, sc, read-out: ACH ED50 (sc)): 10 mg/kg
COc1ccc(C(=O)c2c(C)n(CC3CCCN3C)c3ccccc23)cc1 (single isomer, unassigned) [2E(1), (1)1-(1-methyl-2-pyrrolidinylmethyl)-2-methyl-3-(4-methoxybenzoyl)-1H-indle hydrochloride] |  |  |  |  | RW ED50 ([1]; hydrochloride): 13 mg/kg; ACH ED50 ([2]; Table 9, Examples, no route marked in the cell, hydrochloride): 35 mg/kg
Cc1c(C(=O)c2ccccc2F)c2ccccc2n1CC1CCCN1C (stereo not drawn) [Example 2AJ] | 72 mg/kg | 6 mg/kg | 31% |  | 
Cc1c(C(=O)c2ccc(N)cc2)c2ccccc2n1CC1CCCN(C)C1 (stereo not drawn) [Example 9, 2-methyl-3-(4-aminobenzoyl)-1-[(1-methyl-3-piperidinyl)methyl]-1H-indole hydrochloride hemihydrate] | 12 mg/kg | 9 mg/kg |  |  | 
CC(C1CCCN(C)C1)n1cc(C(=O)c2ccccc2F)c2ccccc21 (stereo not drawn) [Example 4G] |  |  |  |  | RW ED50 [1]: 7 mg/kg; ACH ED50 [2, 5]: 19 mg/kg
COc1ccc(C(=O)c2cn(CC3CCCN(C)C3)c3ccccc23)cc1 (stereo not drawn) [Example 1I] |  | 32 mg/kg | 61% | 19% | ED50 [2, 6]: 5 mg/kg; ACH ED50 (MS) ([2]; Table 9, aqueous solution with dilute methanesulfonic acid (MS)): 38 mg/kg
